Key:
B. longum = assay: Ex-germ-free mice colonized with 8-11 strain consortia containing B. longum +/- lactulose; assay type: in vivo, mouse
From the text: (A) Schematic indicating timing of consortia gavage, lactulose administration (20 g/L in drinking water), and stool collection in ex-germ-free mice. […] (B) 16S metagenomics from stool samples without (left facet within each consortia) and with (right facet within each consortia) lactulose exposure is shown as relative abundance. Concentrations of acetate and taurocholic acid are shown in units of mM below each paired sample. (C) Bifidobacteria relative abundance, acetate concentration (mM), and taurocholic acid concentrations (μg/ml) were measured and compared between mice that were and were not exposed to lactulose. […] DNA was extracted using the QIAamp PowerFecal Pro DNA kit (Qiagen). Prior to extraction, samples were subjected to mechanical disruption using a bead beating method. Briefly, samples were suspended in a bead tube (Qiagen) along with lysis buffer and loaded on a bead mill homogenizer (Fisherbrand). Samples were then centrifuged, and supernatant was resuspended in a reagent that effectively removed inhibitors. DNA was then purified routinely using a spin column filter membrane and quantified using Qubit. […] Short chain fatty acids (SCFA, i.e. butyrate, acetate, propionate, and succinate) were derivatized with pentafluorobenzyl bromide (PFBBr) and analyzed via negative ion collision induced-gas chromatography-mass spectrometry ([-]CI-GC-MS, Agilent 8890) 92. Eight bile acids (BA, i.e. primary: cholic acid; conjugated primary: glycocholic acid, taurocholic acid; secondary: deoxycholic acid, lithocholic acid [LCA], isodeoxycholic acid; modified secondary: alloisolithocholic acid [alloisoLCA] and 3-oxolithocholic acid [3-oxoLCA]) were quantified (μg/mL) by negative mode liquid chromatography-electrospray ionization-quadrupole time-of-flight-MS ([-]LC-ESI-QTOF-MS, Agilent 6546). […] For germ-free studies, 6-18 week-old male and female C57BL/6 mice were used. Mice were initially obtained from The Jackson Laboratory and subsequently bred and raised in a germ-free isolator. […]

SBP = assay: Spontaneous bacterial peritonitis (SBP) in liver disease patients paired with fecal samples, logistic regression; assay type: in vivo, human
From the text: FIGS. 12A-12E: Bifidobacteria expansion and associated metabolite production are associated with decreased incidence of spontaneous bacterial peritonitis (SBP). (A) Flow diagram depicting number of samples and number of patients that were filtered out at each step of analysis for SBP. (B) Taxonomic relative abundance by shotgun metagenomics of stool samples paired to ascites samples is plotted in order of decreasing Bifidobacteria abundance from left to right. Underneath each stool sample is the clinical diagnosis associated with an ascites sample (SBP (red) or not SBP (green)). (C) Volcano plot of normalized metabolite concentrations. P-values were calculated using a two-tailed Wilcoxon rank sum test and are corrected for multiple comparisons using the Benjamini-Hochberg procedure. Values with log 2 fold-change >1 (corresponding to a 2-fold change with a p-value <0.05) were considered significant. (D and E) Quantitative levels for butyrate, propionate, lithocholic acid, and alloisolithocholic acid were compared from samples associated and not associated with SBP. Units for SCFA are mM, and units for BA derivatives are in μg/mL. Each point represents a single sample. Median and interquartile range are indicated by the horizontal line and box, respectively. […] Statistical comparisons between individual groups were analyzed using a two-tailed Wilcoxon rank sum test. […]

OC[C@H]1O[C@@H](O[C@@H]2[C@@H](CO)OC(O)(CO)[C@H]2O)[C@H](O)[C@@H](O)[C@H]1O (mixture of isomers) [Lactulose, lactulose]
Relative abundance of B. longum (B. longum; all consortia (CON.1-3), 20 g/L lactulose in drinking water): increased
Fecal taurocholic acid concentrations (B. longum; all three consortia, 20 g/L lactulose): reduced
Fecal acetate concentrations (B. longum; consortia, 20 g/L lactulose): only modestly increased
Samples with lactulose exposure among sbp (SBP; N = 21): (76%)
Samples with lactulose exposure among no sbp (SBP; N = 101): (79%)
